Test results reported in article PMC5729930, “Bitopic fluorescent antagonists of the A2A adenosine receptor based on pyrazolo[4,3-e][1,2,4]triazolo[1,5-c]pyrimidin-5-amine functionalized congeners” (MedChemComm, 2017).
Where two headings read alike, the source gives them in different places. Marks after values point to notes of the source that are not given here.

What was measured:
[1] = target: T1, A1AR (Homo sapiens, UniProt P30542); test: Competition radioligand binding, hA1AR ([3H]DPCPX); conditions: [3H]DPCPX 0.5 nM; for Ki: HEK-293 membranes, 1 h 25 °C, mean ± SEM, read-out: Affinity, Ki, A1; for inhibition at 10 µM: percent inhibition at 10 μM
T1 construct: expressed in transfected cells
T1 sequence (P30542 1-326): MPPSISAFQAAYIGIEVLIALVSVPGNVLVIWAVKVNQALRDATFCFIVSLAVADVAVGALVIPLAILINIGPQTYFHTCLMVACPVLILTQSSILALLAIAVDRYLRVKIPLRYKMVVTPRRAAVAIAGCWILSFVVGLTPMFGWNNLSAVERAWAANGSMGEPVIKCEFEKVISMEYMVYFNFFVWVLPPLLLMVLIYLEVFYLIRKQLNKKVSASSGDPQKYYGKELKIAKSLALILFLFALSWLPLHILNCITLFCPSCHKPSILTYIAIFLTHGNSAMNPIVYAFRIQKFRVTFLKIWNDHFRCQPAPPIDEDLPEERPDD
Description: (§1) The affinity of the amine congeners and other antagonists was measured using standard radioligand binding assays for hA1, A2A and A3ARs (Table 1).[1],[13],[14],[22] Membranes of human embryonic kidney (HEK)293 cells expressing the AR of interest were used in the assay. Primary amine congeners 6a–6d containing spacers of 2–5 methylenes were similar in terms of hA2AAR affinity (Ki 6–9 nM), with the butylamino congener 6c displaying the highest A2AAR selectivity in the series. The affinity of this compound for the hA3AR was determined to be 6.0 μM, with only slightly higher hA1AR affinity. Homologation to 6 methylenes in compound 6e lowered A2AAR affinity. […] No dependence of the affinity on the chain length was evident when comparing AlexaFluor647 conjugates 9 and 10. […]
(§2) Radioligand binding assays: Cell membranes were prepared as reported.1
(§3) Binding assays were carried out using standard radioligands and membrane preparations from HEK-293 cells stably expressing the human (h) A1, A2A or A3ARs or mouse (m) A1, A2A or A3ARs. The radioligands used were: A1AR, [3H]8-cyclopentyl-1,3-dipropylxanthine 14; A2AAR, [3H]2; A3AR, [125I]N6-(4-amino-3-iodobenzyl)adenosine-5′-N-methyluronamide 16. The radioligand for archival A2AAR affinity data presented in Table 1 was [3H]2-[p-(2-carboxyethyl)phenyl-ethylamino]-5′-N-ethylcarboxamidoadenosine 15. Nonspecific binding was determined using 10 µM 8-[4-[[[[(2-aminoethyl)amino]carbonyl]methyl]oxy]phenyl]-1,3-dipropylxanthine 17 (A1AR and A2AAR) or 10 µM adenosine-5′-N-ethyluronamide 18 (A3AR). HEK-293 cells expressing recombinant mA1, A2A, or A3AR […]
(§4) Protein was determined as reported.2 In all the binding experiments, IC50 values and Ki values were calculated using GraphPad Prism software (San Diego, CA). Values are expressed as mean±SEM. […]
(§5) Med. Chem. Comm., 2015, 6:555-563.
(§6) 2. Bradford, M. M. A rapid and sensitive method for the quantitation of microgram quantities of protein utilizing the principle of protein -dye binding. Anal. Biochem. 1976, 72, 248-254.

[2] = target: T2, A3AR (Homo sapiens, UniProt P0DMS8); test: Competition radioligand binding, hA3AR ([125I]I-AB-MECA); conditions: for inhibition at 10 µM: percent inhibition at 10 μM, read-out: % inhib, A3
T2 construct: expressed in transfected cells
T2 sequence (P0DMS8 1-318): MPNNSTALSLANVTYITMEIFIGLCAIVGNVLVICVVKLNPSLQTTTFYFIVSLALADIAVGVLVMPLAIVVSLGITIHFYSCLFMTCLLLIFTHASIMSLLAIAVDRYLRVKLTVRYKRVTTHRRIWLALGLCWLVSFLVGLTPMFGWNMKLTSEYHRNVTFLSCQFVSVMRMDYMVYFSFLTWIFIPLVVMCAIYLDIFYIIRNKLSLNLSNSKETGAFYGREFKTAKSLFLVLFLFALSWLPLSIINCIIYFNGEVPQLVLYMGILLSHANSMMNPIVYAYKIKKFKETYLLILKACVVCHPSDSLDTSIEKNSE
Description: as §1, §2, §3, §4, §5, §6

[3] = target: T3, A2AAR (Homo sapiens, UniProt P29274); test: Competition radioligand binding, hA2AAR ([3H]ZM241385 or [3H]CGS21680); conditions: human A2AAR, HEK-293 membranes, [3H]ZM241385 1.0 nM, 1 h 25 °C, mean ± SEM; read-out: Affinity, Ki, A2A
T3 construct: expressed in transfected cells
Description: (§7) The affinity of the amine congeners and other antagonists was measured using standard radioligand binding assays for hA1, A2A and A3ARs (Table 1).[1],[13],[14],[22] Membranes of human embryonic kidney (HEK)293 cells expressing the AR of interest were used in the assay. Primary amine congeners 6a–6d containing spacers of 2–5 methylenes were similar in terms of hA2AAR affinity (Ki 6–9 nM), with the butylamino congener 6c displaying the highest A2AAR selectivity in the series. The affinity of this compound for the hA3AR was determined to be 6.0 μM, with only slightly higher hA1AR affinity. Homologation to 6 methylenes in compound 6e lowered A2AAR affinity. […] No dependence of the affinity on the chain length was evident when comparing AlexaFluor647 conjugates 9 and 10.
Fig. 1 Antagonist radioligand ([^3H]2, 1.0 nM) binding inhibition curves for the hA2AAR for four antagonist fluorescent conjugates. Compound numbers: MRS7322 9, MRS7395 10, MRS7396 11 and MRS7416 12. Membranes from HEK-293 cells expressing the hA2AAR were used, and their incubation was performed for 1 h at 25 °C. Results are expressed as the mean ± SEM.
(§8) Cell culture for membrane binding assays and flow cytometry: HEK-293 cells stably expressing the A2AAR were grown in Dulbecco’s Modified Eagle’s Medium (DMEM) with 10% FBS, 100 units/ml penicillin, […] streptomycin, 2 mM L-glutamine and 0.500 mg/mL G418 Sulfate (Geneticin). […]
as §2, §3, §4, §5, §6

[4] = target: T4, 5HT2A serotonin receptor (Homo sapiens, UniProt P28223); test: PDSP off-target radioligand binding, 5HT2A; conditions: PDSP radioligand binding inhibition
T4 construct: PDSP (screening service)
Description: (§9) . Off-target binding activities at 45 diverse receptors were determined by PDSP[25] for selected compounds: 6c and 13 (ESI ^†). […]; 1.92 μM, 5HT2B receptor. Thus, the primary amine precursor of the fluorescent conjugates 10–12 was not promiscuous in its interaction with other proteins, i.e. this chemical series is not associated with pan-assay interference compounds.[26]
(§10) Chinese hamster ovary (CHO) cells stably expressing the human A2AAR were cultured in Dulbecco's Modified Eagle Medium (Mediatech, Manassas, VA) supplemented with 10% fetal bovine serum, 100 units/ml penicillin, 100 µg/ml streptomycin and 2 µmol/ml glutamine. Cells were plated in 96-well plates in 100 µl medium. After 24 h, the medium was removed and cells were washed three times with 100 µl DMEM, containing 50 mM HEPES, pH 7.4. Cells were treated with antagonists (or medium for control) in the presence of rolipram (10 µM) and adenosine deaminase (3 units/ml) and 5 min later with agonist for 20 min. The reaction was terminated by removal of the supernatant, and cells were lysed upon the addition of 100 µl of lysis buffer (0.3% Tween-20). cAMP was measured using ALPHAScreen cAMP kits (PerkinElmer, Boston, MA) as instructed by the manufacturer.
(§11) Refer to: http://pdspdb.unc.edu for full list of comprehensive screen at 45 targets.
(§12) 5HT2A serotonin receptor: […]

[5] = target: T5, 5HT2B receptor (Homo sapiens, UniProt P41595); test: PDSP off-target radioligand binding, 5HT2B; conditions: PDSP radioligand binding inhibition
T5 construct: PDSP (screening service)
Description: as §9, §10, §11, §12

[6] = target: T1, A1AR; parameters: method as in earlier work; conditions: percent inhibition at 10 μM, 14 (Kumar et al. and Kecskés et al.); cited from earlier work
[7] = target: T2, A3AR; parameters: method as in earlier work; conditions: percent inhibition at 10 μM, 14 (Kumar et al. and Kecskés et al.); cited from earlier work
[8] = target: T6, mA2AAR (Mus musculus, UniProt Q60613); test: Competition radioligand binding, mA2AAR; conditions: mouse A2AAR, HEK-293 membranes, mean ± SEM; read-out: Affinity, Ki, A2A (m) (converted)
T6 construct: expressed in transfected cells; host or cells: HEK-293
Description: as §7, §8, §2, §3, §4, §5, §6

[9] = target: T7, mA1AR (Mus musculus, UniProt Q60612); test: Competition radioligand binding, mA1AR; conditions: mouse A1AR, percent inhibition at 10 μM
T7 construct: expressed in transfected cells; host or cells: HEK-293
T7 sequence (Q60612 1-326): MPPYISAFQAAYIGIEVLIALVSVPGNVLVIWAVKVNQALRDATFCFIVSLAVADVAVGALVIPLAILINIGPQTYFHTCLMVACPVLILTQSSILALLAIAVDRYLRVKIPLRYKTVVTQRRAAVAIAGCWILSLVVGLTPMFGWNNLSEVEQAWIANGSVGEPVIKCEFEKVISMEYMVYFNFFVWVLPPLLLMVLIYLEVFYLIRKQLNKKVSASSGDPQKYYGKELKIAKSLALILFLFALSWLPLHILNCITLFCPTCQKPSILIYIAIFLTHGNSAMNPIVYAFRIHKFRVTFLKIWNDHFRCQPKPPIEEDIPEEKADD
Description: as §1, §2, §3, §4, §5, §6

[10] = target: T8, mA3AR (Mus musculus, UniProt Q61618); test: Competition radioligand binding, mA3AR; conditions: mouse A3AR, percent inhibition at 10 μM; read-out: % inhib, A3 (m) (converted)
T8 construct: expressed in transfected cells; host or cells: HEK-293
T8 sequence (Q61618 1-319): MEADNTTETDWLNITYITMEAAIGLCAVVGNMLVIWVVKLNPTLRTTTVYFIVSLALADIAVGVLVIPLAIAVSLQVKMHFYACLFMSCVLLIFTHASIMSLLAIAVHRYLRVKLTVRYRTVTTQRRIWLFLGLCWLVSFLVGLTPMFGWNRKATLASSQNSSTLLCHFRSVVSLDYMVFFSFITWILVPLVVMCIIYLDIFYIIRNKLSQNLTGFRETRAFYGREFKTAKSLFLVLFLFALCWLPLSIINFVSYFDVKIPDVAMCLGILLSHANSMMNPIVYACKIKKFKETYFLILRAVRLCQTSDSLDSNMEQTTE
Description: as §1, §2, §3, §4, §5, §6

[11] = HEK-293 membranes, [125I]I-AB-MECA 0.2 nM, 1 h 25 °C, mean ± SEM, read-out: Affinity, Ki, A3

T3 sequence (P29274 whole entry): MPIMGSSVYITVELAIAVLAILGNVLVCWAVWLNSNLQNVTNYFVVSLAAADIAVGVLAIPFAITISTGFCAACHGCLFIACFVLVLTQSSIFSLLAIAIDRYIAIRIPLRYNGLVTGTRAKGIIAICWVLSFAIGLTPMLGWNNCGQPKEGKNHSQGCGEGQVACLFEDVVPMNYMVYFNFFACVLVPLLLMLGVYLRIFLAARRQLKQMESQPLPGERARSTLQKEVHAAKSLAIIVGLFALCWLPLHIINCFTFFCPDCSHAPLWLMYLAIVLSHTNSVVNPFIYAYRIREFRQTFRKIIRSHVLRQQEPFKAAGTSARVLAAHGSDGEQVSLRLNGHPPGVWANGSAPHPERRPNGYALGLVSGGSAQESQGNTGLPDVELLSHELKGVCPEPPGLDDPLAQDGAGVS
T6 sequence (Q60613 whole entry): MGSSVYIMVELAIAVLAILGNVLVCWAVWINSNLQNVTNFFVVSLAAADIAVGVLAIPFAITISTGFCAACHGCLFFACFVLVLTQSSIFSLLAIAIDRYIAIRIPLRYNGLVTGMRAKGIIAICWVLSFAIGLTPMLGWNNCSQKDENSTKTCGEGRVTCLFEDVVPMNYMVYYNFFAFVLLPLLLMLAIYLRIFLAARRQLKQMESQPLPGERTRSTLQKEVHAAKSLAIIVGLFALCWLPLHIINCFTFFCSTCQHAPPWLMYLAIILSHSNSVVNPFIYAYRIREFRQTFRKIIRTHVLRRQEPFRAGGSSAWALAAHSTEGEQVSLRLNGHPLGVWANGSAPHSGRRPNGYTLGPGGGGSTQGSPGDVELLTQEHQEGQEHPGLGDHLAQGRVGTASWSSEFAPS
T4 sequence (P28223 whole entry): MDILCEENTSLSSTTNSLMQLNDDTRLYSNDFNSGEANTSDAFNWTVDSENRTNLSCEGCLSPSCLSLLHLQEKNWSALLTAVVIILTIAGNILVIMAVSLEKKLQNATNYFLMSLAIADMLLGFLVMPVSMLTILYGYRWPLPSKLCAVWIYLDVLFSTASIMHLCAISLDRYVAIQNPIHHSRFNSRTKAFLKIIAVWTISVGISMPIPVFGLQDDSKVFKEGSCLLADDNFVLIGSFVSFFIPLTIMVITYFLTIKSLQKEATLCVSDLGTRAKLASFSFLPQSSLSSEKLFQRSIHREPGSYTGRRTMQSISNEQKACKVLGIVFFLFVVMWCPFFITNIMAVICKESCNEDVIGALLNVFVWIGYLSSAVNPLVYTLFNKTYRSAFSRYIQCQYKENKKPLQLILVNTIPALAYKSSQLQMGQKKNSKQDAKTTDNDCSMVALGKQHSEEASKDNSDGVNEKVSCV
T5 sequence (P41595 whole entry): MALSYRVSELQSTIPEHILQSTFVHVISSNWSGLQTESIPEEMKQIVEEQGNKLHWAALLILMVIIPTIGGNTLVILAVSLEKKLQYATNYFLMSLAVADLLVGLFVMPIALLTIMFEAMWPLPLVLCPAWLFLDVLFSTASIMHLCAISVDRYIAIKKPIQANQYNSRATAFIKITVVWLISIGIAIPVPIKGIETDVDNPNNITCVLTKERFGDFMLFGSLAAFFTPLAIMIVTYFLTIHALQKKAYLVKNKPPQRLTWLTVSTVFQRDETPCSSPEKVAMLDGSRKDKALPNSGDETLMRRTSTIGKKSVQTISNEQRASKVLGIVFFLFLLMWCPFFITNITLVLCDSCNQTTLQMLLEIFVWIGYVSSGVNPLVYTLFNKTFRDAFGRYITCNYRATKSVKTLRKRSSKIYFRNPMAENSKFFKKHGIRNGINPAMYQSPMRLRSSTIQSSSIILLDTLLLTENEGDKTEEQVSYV

Row | Ki [1] | Ki [2, 11] | Ki [3] | SMILES | % inhib, A1 [6] | % inhib, A3 [7] | other results
1 | 1.3 ± 0.35 µM | 2.17 ± 0.66 µM | 0.00929 ± 0.00792 µM | NCCCNC(=O)COc1ccc(CCCn2ncc3c2nc(N)n2nc(-c4ccco4)nc32)cc1 [6b] |  |  | 
2 | 2.39 ± 0.1 µM | 5.99 ± 2.9 µM | 0.00646 ± 0.00163 µM | NCCCCNC(=O)COc1ccc(CCCn2ncc3c2nc(N)n2nc(-c4ccco4)nc32)cc1 [6c] |  |  | Ki [4]: 3.36 µM; Ki ([2]; read-out: affinity for the hA3AR): 6 µM; Ki [5]: 1.92 µM
3 | 1.91 ± 0.12 µM | 0.656 ± 0.132 µM | 0.00636 ± 0.00358 µM | NCCCCCNC(=O)COc1ccc(CCCn2ncc3c2nc(N)n2nc(-c4ccco4)nc32)cc1 [6d] |  |  | 
4 | 6.5 ± 2.83 µM | 2.07 ± 0.85 µM | 0.0228 ± 0.00845 µM | NCCCCCCNC(=O)COc1ccc(CCCn2ncc3c2nc(N)n2nc(-c4ccco4)nc32)cc1 [6e] |  |  | 
5 |  |  |  | COc1ccc(CCCn2ncc3c2nc(N)n2nc(-c4ccco4)nc32)cc1 [compound 3, 5-amino-7-(3-(4-methoxy)phenylpropyl)-2-(2-furyl)pyrazolo[4,3-e]-1,2,4-triazolo[1,5-c]pyrimidine] | (35 ± 5%) ^c | (67 ± 1%) ^c | 
6 |  |  |  | N=c1ccc2c(-c3ccc(C(=O)NCCNC(=O)COc4ccc(CCCn5ncc6c5nc(N)n5nc(-c7ccco7)nc65)cc4)cc3C(=O)O)c3ccc(N)c(S(=O)(=O)O)c3oc-2c1S(=O)(=O)O [compound 5] | (20 ± 3%) ^c | (4 ± 2%) ^c | 
7 |  |  |  | Nc1nc2c(cnn2CCCc2ccc(O)cc2)c2nc(-c3ccco3)nn12 [compound 7] | (66 ± 2%) ^c | (34 ± 3%) ^c | 
8 |  |  | 0.332 ± 0.165 µM | CC1(C)C(/C=C/C=C/C=C2/N(CCCS(=O)(=O)O)c3ccc(S(=O)(=O)O)cc3C2(C)CCCCCC(=O)NCCNC(=O)COc2ccc(CCCn3ncc4c3nc(N)n3nc(-c5ccco5)nc43)cc2)=[N+](CCCS(=O)(=O)O)c2ccc(S(=O)(=O)[O-])cc21 (stereo not drawn) [compound 9] |  |  | Ki [8]: 0.458 µM; inhibition at 10 µM [1]: 13%; inhibition at 10 µM [9]: 3%; inhibition at 10 µM [10]: 4%; inhibition at 10 µM ([2]; [125I]I-AB-MECA 0.2 nM): 21%
9 |  |  | 0.295 ± 0.176 µM | CC1(C)C(/C=C/C=C/C=C2/N(CCCS(=O)(=O)O)c3ccc(S(=O)(=O)O)cc3C2(C)CCCCCC(=O)NCCCCNC(=O)COc2ccc(CCCn3ncc4c3nc(N)n3nc(-c5ccco5)nc43)cc2)=[N+](CCCS(=O)(=O)O)c2ccc(S(=O)(=O)[O-])cc21 (stereo not drawn) [compound 10] |  |  | inhibition at 10 µM [1]: 20%; inhibition at 10 µM ([2]; [125I]I-AB-MECA 0.2 nM): 21%
